{"source": "paper PMC4585962", "about": "“A peptide factor secreted by Staphylococcus pseudintermedius exhibits properties of both bacteriocins and virulence factors” (Scientific Reports, 2015)", "key": {"[1]": {"test_system": "Streptococcus sanguinis PCM 2335", "experiment": "MIC, microdilution assay", "assay_type": "cell-based", "conditions": "broth microdilution (CLSI), MHB with 5% lysed horse blood, overnight 37 °C, OD 600 nm; mean of three independent measurements", "description": "The microbicidal activity of BacSp222 was determined using the microdilution method in compliance with Clinical and Laboratory Standards Institute (CLSI, for bacteria) guidelines M7-A7[57] and in compliance with the European Committee on Antimicrobial Susceptibility Testing - Subcommittee on Antifungal Susceptibility Testing (EUCAST-AFST, for fungi)[58]. Briefly, the microorganisms were cultivated in dedicated liquid media to reach the early exponential phase or, in the case of Streptococcus spp., grown overnight on agar MHB supplemented with 2.5% (v/v) lysed horse blood (LHB). Subsequently, the microorganisms were diluted to 1 × 10^6 CFU/ml (estimated using an Eddy Jet 2 automatic spiral plater, IUL) in MHB; in MHB supplemented with 5% (v/v) LHB (for streptococci); or, in the case of Candida albicans, in RPMI-1640 medium (Thermo) without L-Glu and phenol red, supplemented with 0.6 g/l L-Glu, 34.53 g/l 3-(N-morpholino)propanesulphonic acid and 18 g/l glucose, pH 7.0. Fifty microliters of microorganism suspension were mixed with an equal volume of appropriate medium containing serial 2- or 1.5-fold dilutions of BacSp222. After the cultures were incubated overnight at 37 °C, the optical density (OD) at 600 nm was measured. The minimal inhibitory concentration (MIC), calculated as a mean value from three independent measurements, was defined as the minimum peptide concentration for which an increase in OD was not observed compared to uninoculated broth."}, "[2]": {"target": "T1, V8 peptidase (Staphylococcus aureus, UniProt P0C1U8)", "T1 construct": "purchased Biocentrum", "T1 sequence (P0C1U8 69-336)": "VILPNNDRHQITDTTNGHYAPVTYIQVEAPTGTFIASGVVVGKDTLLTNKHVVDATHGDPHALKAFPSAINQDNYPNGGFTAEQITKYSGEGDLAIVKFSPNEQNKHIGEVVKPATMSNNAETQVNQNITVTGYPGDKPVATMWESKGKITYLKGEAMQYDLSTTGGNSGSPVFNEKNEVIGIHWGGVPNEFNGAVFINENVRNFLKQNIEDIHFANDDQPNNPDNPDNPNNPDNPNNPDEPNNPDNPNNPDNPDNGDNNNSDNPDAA", "experiment": "Susceptibility to proteolysis, residual bactericidal activity", "assay_type": "in vitro ADME, S. aureus", "conditions": "30 μM peptide, 100 mM sodium phosphate pH 7.8, enzyme:peptide 1:50 or 1:10 (w/w), 3 hours, 37 °C; residual activity by radial diffusion assay on B. subtilis; triplicate", "description": "(§1) The bactericidal activity of BacSp222 was also determined using the radial diffusion assay. In TSB agar (1%, w/v) containing a 200× diluted overnight culture of Bacillus subtilis ATCC 6633, wells of 2.4-mm diameter were created by drilling out the agar and filling the hole with 10 μl of the BacSp222 preparation for testing. Following overnight incubation at 37 °C, the bactericidal activity was measured as the area of the inhibition zones.\n(§2) The temperature stability of BacSp222 (30 μM final concentration) was determined in PBS. The solution was incubated for 1 or 3 h at 72 °C (typical temperature of pasteurization) or at 100 °C. Independently, a solution of bacteriocin was also subjected to a full cycle of autoclaving (20 min at 121 °C). The susceptibility of BacSp222 to proteolysis was verified using S. aureus staphopain C and V8 peptidase, human neutrophil elastase, human cathepsin G (Biocentrum), bovine TPCK-treated trypsin, pepsin from porcine gastric mucosa (Sigma), and proteinase K (A&A Biotechnology). […] The residual activity was determined with the radial diffusion assay using Bacillus subtilis as an indicator strain. […]"}, "[3]": {"test_system": "staphopain C (StpC)", "experiment": "Susceptibility to proteolysis, residual bactericidal activity", "assay_type": "in vitro ADME, S. aureus", "conditions": "30 μM peptide, 100 mM Tris-HCl pH 7.5 with 5 mM cysteine hydrochloride and 5 mM EDTA, enzyme:peptide 1:50 or 1:10 (w/w), 3 hours, 37 °C; residual activity by radial diffusion assay on B. subtilis; triplicate", "description": "as §1, §2"}, "[4]": {"experiment": "Temperature stability, residual bactericidal activity", "assay_type": "physicochemical", "conditions": "30 μM in PBS, full cycle of autoclaving, 20 min at 121 °C; radial diffusion assay on B. subtilis; 100% = untreated BacSp222; triplicate ± SD", "description": "as §1, §2"}, "[5]": {"experiment": "Hydrodynamic diameter by dynamic light scattering", "assay_type": "physicochemical", "conditions": "0.2 mg/ml in PBS, room temperature, filtered 0.2 μm, average of three independent measurements; suggests elongated shape or dimers", "description": "The hydrodynamic diameter of the BacSp222 molecule was determined at room temperature by the dynamic light scattering (DLS) technique using a Zetasizer Nano ZS apparatus (Malvern Instruments); a 0.2 mg/ml solution of the peptide in phosphate buffered saline (PBS) was used for analysis. Prior to measurements, the solution was filtered through a 0.2 μm bioinert membrane (Sigma). The obtained spectra were averaged over three independent measurements. The size of BacSp222 was also evaluated by gel filtration chromatography using a Superdex Peptide 10/300 GL column (GH Healthcare) operated in PBS with a 0.3 ml/min flow rate."}, "[6]": {"test_system": "P388D1 cells", "experiment": "NO synthesis (nitrite, Griess reagent)", "assay_type": "cell-based, murine", "conditions": "24 h", "description": "(§3) The murine monocyte/macrophage cell line P388/D1 and murine macrophage-like cell line RAW264.7 were grown in a 96-well plate in DMEM supplemented with 5% (v/v) FBS. Prior to the experiment, the medium was replaced with fresh DMEM enriched with 2% (v/v) of FBS (negative control) or supplemented with 1) 100 ng/ml lipopolysaccharide (LPS, Sigma), 2) 10 ng/ml IFN [drawing 9] (R&D Systems), 3) 0.01–1000 nM BacSp222, or 4) BacSp222 combined with LPS or IFN [drawing 10] . The cells were then cultured for another 24 h to induce iNOS expression and nitric oxide synthesis. The nitrite levels were measured in culture medium by a nitrate assay performed on a microplate. One hundred microliters of cultured media was incubated with 100 μl of Griess reagent (1% (w/v) sulphanilic acid/0.1% (w/v) N-(1-naphtyl) ethylenediaminedihydrochloride (Sigma) in 2.5% (v/v) H3PO4) at room temperature for 10 min. Then, the absorbance was measured at 545 nm using a microplate reader (PowerWave X, BioTek Instruments). Before use, the solution of BacSp222 was tested for LPS contamination using an E-TOXATE assay kit (Sigma). The measurements ascertained that the level of LPS in 1 μM bacteriocin solution was equal to or less than 3 pg/ml."}, "[7]": {"test_system": "RAW264.7 cells", "experiment": "NO synthesis (nitrite, Griess reagent)", "assay_type": "cell-based, murine", "conditions": "24 h", "description": "as §3"}, "[8]": {"conditions": "0.01–1000 nM BacSp222 with LPS 100 ng/ml"}, "[9]": {"conditions": "nanomolar concentrations of BacSp222 with IFNγ 10 ng/ml"}}, "note": "No end group written: not given here. *: point of attachment. For = O=C*", "data": [{"substance": "For-MAGLLRFLLSKGRALYNWAKSHVGKVWEWLKSGATYEQIKEWIENALGWR [BacSp222]", "values": [{"measurement": "MIC ± SD", "setting": "[1]", "result": "3.50 ± 0.85", "unit": "µM"}, {"measurement": "activity of BacSp222 after incubation with the enzyme", "setting": "[2]", "result": "not significantly reduced"}, {"measurement": "activity of BacSp222 after incubation with the enzyme", "setting": "[3]", "result": "not significantly reduced"}, {"measurement": "activity against the indicator strain after autoclaving", "setting": "[4]", "result": "55 ± 8.8", "unit": "%"}, {"measurement": "hydrodynamic diameter estimated by DLS", "setting": "[5]", "result": 3.68, "unit": "nm"}, {"measurement": "effect on LPS-induced NO production", "setting": "[6]; [8]", "result": "did not affect"}, {"measurement": "NO production after exposure to BacSp222 alone", "setting": "[6]; at 100 and 1000 nM, DMEM 2% FBS, nitrite at 545 nm", "result": "able to produce NO"}, {"measurement": "NO release with BacSp222 together with IFNγ", "setting": "[6]; [9]", "result": "released NO in a dose-dependent manner"}, {"measurement": "effect on LPS-induced NO production", "setting": "[7]; [8]", "result": "did not affect"}, {"measurement": "NO production after exposure to BacSp222 alone", "setting": "[7]; 0.01–1000 nM, DMEM 2% FBS, nitrite at 545 nm", "result": "Only P388D1 cells were able to produce NO"}, {"measurement": "NO release with BacSp222 together with IFNγ", "setting": "[7]; [9]", "result": "released NO in a dose-dependent manner"}]}]}
